Measured values from patent publication US4412988A, “Hexapeptides” (Roussel Uclaf, priority 1980, dated 1983).

Tested on: rats
Experiment: Action against extinction of a practice of active avoiding a negative reinforcement (conditional avoidance response, deWeid apparatus)
Type: in vivo
Details: subcutaneous, phosphate-zinc complex, percent relative to conditional responses in first extinction test before treatment; for % of conditional response in course of extinction period after 2 hours: 2 hours after injection, untreated control 60; for % of conditional response in course of extinction period after 4 hours: 4 hours after injection, untreated control 30
Experimental: The action against extinction of a practice of active avoiding a negative reinforcement was determined using an apparatus described by deWeid (Proc. Soc. Ex. Biol. Med.,) Vol. 122 ([…]) p. 28). The practice is effected in a box equipped with a 60 W lamp (conditional stimulus: CS), a mat and an electrifiable floor connected to an electric stimulus which permits the delivery of a painful shock of 75 volts (unconditional stimulus US). The conditional stimulus is present only for 5 seconds, then is associated with an unconditional stimulus just as the animal grips the mat realizing as well the avoidance response desired. The conditional response is acquired when the animal responds to the conditional stimulus.
10 tests at 60 second intervals were effected daily for 3 days and examination of the extinction of the practice realized with suppression of the unconditional stimulus is followed on the 4th day with 3 tests at 2 hour intervals with the animals presenting at least 7 conditional responses.
The compounds were injected subcutaneously as a phosphate-zinc complex before the first test of extinction of practice to group of 5 rats and the results were compared with an untreated control group of rats. The evolution of the conditional response in the course of the period of extinction of practice 2 and 4 hours after the injection of the compound is expressed as the percent of variation with respect to the number of conditional responses observed in the first test of extinction before treatment.

Substance | % of conditional response in course of extinction period after 2 hours (dose 1 μg/rat) | % of conditional response in course of extinction period after 4 hours (dose 1 μg/rat) | % of conditional response in course of extinction period after 2 hours (dose 10 μg/rat) | % of conditional response in course of extinction period after 4 hours (dose 10 μg/rat)
Acetate of cyclic disulide (1→4) of N-[Cysteinylalanylanylcysteinyl-D-lysyl]-phenylalanine [Example 2] | 59% | 35% | 71% | 75%
Acetate of cyclic disulfide (1→6) of N-[cysteinylalanylalanylphenylalanyl-D-lysyl]-cysteine [Example 1] | 51% | 49% | 76% | 71%
Cyclic disulfide (1→4) of N-[cysteinylglutamylhistidylcysteinyl-D-lysyl]-phenylalanine [Example 3] | 75% | 29% | 70% | 50%
